How the values were obtained:
[1] = biological target: T1, human sphingosine-1-phosphate receptor 1 (S1P1) (Homo sapiens (Human), UniProt P21453); experiment: Inhibition of cAMP production (HTRF cAMP HiRange), S1P1 CHO-K1 cells; format: cell-based; conditions: for hS1P1 cAMP pEC50: inhibition of cAMP production, S1P1 CHO-K1 cells; for Emax: CHO-K1, efficacy (SPAN) normalized to fingolimod, read-out: hS1P1 cAMP SPAN
In short: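 CHO-K1 cells stably co-expressing human S1P1 (C-terminal Prolink tag) and EA-β-arrestin2 were grown in AssayComplete Media 6 at 37° C. and 5% CO2, plated, and incubated overnight. Agonist-driven inhibition of intracellular cAMP was read by TR-FRET with the HTRF cAMP HiRange kit on a PheraStar reader. Potency is pEC50, and efficacy (SPAN) is normalized to fingolimod.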
Target sequence in this assay (P21453 whole entry, looked up): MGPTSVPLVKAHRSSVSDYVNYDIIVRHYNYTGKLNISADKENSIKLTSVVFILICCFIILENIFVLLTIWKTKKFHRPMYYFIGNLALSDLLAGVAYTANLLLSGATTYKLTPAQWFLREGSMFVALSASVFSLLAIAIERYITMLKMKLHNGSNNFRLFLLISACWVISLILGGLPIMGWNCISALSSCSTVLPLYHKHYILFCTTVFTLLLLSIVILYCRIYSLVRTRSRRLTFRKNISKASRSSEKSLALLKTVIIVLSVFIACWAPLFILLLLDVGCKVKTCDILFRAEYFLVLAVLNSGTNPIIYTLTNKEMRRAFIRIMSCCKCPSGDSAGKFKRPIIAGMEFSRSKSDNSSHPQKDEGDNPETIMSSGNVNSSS

[2] = biological target: T1, human sphingosine-1-phosphate receptor 1 (S1P1); experiment: β-Arrestin2 recruitment assay (PathHunter), S1P1 CHO-K1 cells; format: cell-based; conditions: for hS1P1 B-arrestin2 pEC50: β-arrestin2 recruitment, S1P1 CHO-K1 cells; for Emax: CHO-K1, efficacy (SPAN) normalized to fingolimod, read-out: hS1P1 B-arrestin2 SPAN
In short: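 Enzyme-fragment complementation read-out: agonist-driven β-arrestin2 binding to ProLink-tagged human S1P1 in stable CHO-K1 cells restores β-galactosidase, measured 1 h at room temperature after a 60 min 37° C. compound incubation. Potency as pEC50, efficacy relative to fingolimod (SPAN).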
Target sequence in this assay (P21453 whole entry, looked up): as above
Target sequence in this assay (P32121 whole entry partner, looked up): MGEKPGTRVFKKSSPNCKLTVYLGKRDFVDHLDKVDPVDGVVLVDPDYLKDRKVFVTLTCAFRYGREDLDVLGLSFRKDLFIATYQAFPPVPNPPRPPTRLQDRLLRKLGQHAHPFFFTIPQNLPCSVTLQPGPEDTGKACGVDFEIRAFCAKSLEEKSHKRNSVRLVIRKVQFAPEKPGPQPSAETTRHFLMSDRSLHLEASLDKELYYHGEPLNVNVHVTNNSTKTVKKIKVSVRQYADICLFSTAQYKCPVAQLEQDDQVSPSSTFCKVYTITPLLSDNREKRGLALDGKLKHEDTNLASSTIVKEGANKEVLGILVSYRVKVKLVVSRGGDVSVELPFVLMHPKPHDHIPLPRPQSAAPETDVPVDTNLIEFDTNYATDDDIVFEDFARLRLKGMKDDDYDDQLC

Compound	hS1P1 cAMP pEC50 [1]	hS1P1 B-arrestin2 pEC50 [2]	Emax [1] [%]	Emax [2] [%]
COc1ccc(-c2nc(-c3ccc4c(ccn4C(C)C)c3)no2)cc1 [Compound 393, 3-(1-isopropyl-1H-indol-5-yl)-5-(4-methoxyphenyl)-1,2,4-oxadiazole]	<6.5	<5		
CC(C)n1ccc2cc(-c3noc(-c4cccc(F)c4)n3)ccc21 [Compound 394, 5-(3-fluorophenyl)-3-(1-isopropyl-1H-indol-5-yl)-1,2,4-oxadiazole]	<6.5	>5		
CC(C)n1ccc2cc(-c3noc(-c4ccncc4)n3)ccc21 [Compound 395, 3-(1-isopropyl-1H-indol-5-yl)-5-(pyridin-4-yl)-1,2,4-oxadiazole]	>6.5	>5		
CC(C)n1ccc2cc(-c3noc(-c4cccnc4)n3)ccc21 [Compound 396, 3-(1-isopropyl-1H-indol-5-yl)-5-(pyridin-3-yl)-1,2,4-oxadiazole]	<6.5	<5		
CC(C)n1ccc2cc(-c3noc(-c4ccccn4)n3)ccc21 [Compound 397, 3-(1-isopropyl-1H-indol-5-yl)-5-(pyridin-2-yl)-1,2,4-oxadiazole]	<6.5	<5		
CC(C)n1ccc2cc(-c3noc(-c4ccncc4F)n3)ccc21 [Compound 399, 5-(3-fluoropyridin-4-yl)-3-(1-isopropyl-1H-indol-5-yl)-1,2,4-oxadiazole]	>6.5	>5		
CC(C)n1ccc2cc(-c3noc(-c4ccc(F)cc4)n3)ccc21 [Compound 400, 5-(4-fluorophenyl)-3-(1-isopropyl-1H-indol-5-yl)-1,2,4-oxadiazole]	<6.5	<5		
COc1ccccc1-c1csc(-c2cnc3c(ccn3C(C)C)c2)n1 [Compound 401, 2-(1-isopropyl-1H-pyrrolo[2,3-b]pyridin-5-yl)-4-(2-methoxyphenyl)thiazole]	<6.5	<5		
CC(C)n1ccc2cc(-c3nc(-c4ccccc4F)cs3)cnc21 [Compound 402, 4-(2-fluorophenyl)-2-(1-isopropyl-1H-pyrrolo[2,3-b]pyridin-5-yl)thiazole]	>6.5	<5		
CC(C)n1ccc2cc(-c3nc(-c4ccccc4F)cs3)ccc21 [Compound 403, 4-(2-fluorophenyl)-2-(1-isopropylindol-5-yl)thiazole]	<6.5	<5	< 75	< 75
CC(C)n1ccc2cc(-c3nc(-c4ccccc4C(F)(F)F)cs3)ccc21 [Compound 404, 2-(1-isopropylindol-5-yl)-4-[2-(trifluoromethyl)phenyl]thiazole]	<6.5	<5	> 75	< 75
COc1cccc(-c2csc(-c3ccc4c(ccn4C(C)C)c3)n2)c1 [Compound 405, 2-(1-isopropylindol-5-yl)-4-(3-methoxyphenyl)thiazole]	<6.5	<5		
Cc1ccccc1-c1csc(-c2cnc3c(ccn3C(C)C)c2)n1 [Compound 407, 2-(1-isopropylpyrrolo[2,3-b]pyridin-5-yl)-4-(o-tolyl)thiazole]	<6.5	<5		
CC(C)n1ccc2cc(-c3nc(-c4ccccc4C(F)(F)F)cs3)cnc21 [Compound 408, 2-(1-isopropylpyrrolo[2,3-b]pyridin-5-yl)-4-[2-(trifluoromethyl)phenyl]thiazole]	<6.5	<5		
Cc1ccccc1-c1csc(-c2ccc3c(ccn3C(C)C)n2)n1 [Compound 409, 2-(1-isopropylpyrrolo[3,2-b]pyridin-5-yl)-4-(o-tolyl)thiazole]	<6.5	<5		
COc1cccc(-c2csc(-c3ccc4c(ccn4C(C)C)n3)n2)c1 [Compound 410, 2-(1-isopropylpyrrolo[3,2-b]pyridin-5-yl)-4-(3-methoxyphenyl)thiazole]	<6.5	<5		
COc1ccccc1-c1csc(-c2ccc3c(ccn3C(C)C)n2)n1 [Compound 411, 2-(1-isopropyl-1H-pyrrolo[3,2-b]pyridin-5-yl)-4-(2-methoxyphenyl)thiazole]	<6.5	<5		
CC(C)n1ccc2nc(-c3nc(-c4ccccc4Br)cs3)ccc21 [Compound 412, 4-(2-bromophenyl)-2-(1-isopropyl-1H-pyrrolo[3,2-b]pyridin-5-yl)thiazole]	<6.5	<5		
CC(C)n1nnc2cc(-c3nc(-c4ccccc4Br)no3)cnc21 [Compound 413, 3-(2-bromophenyl)-5-[3-(propan-2-yl)-3H-[1,2,3]triazolo[4,5-b]pyridin-6-yl]-1,2,4-oxadiazole]	>6.5	>5		
Cc1ccncc1-c1noc(-c2cnc3c(c2)nnn3C(C)C)n1 [Compound 414, 4-methyl-3-{5-[3-(propan-2-yl)-3H-[1,2,3]triazolo[4,5-b]pyridin-6-yl]-1,2,4-oxadiazol-3-yl}pyridine]	>6.5	<5		

More lines, now with the values ahead:

hS1P1 cAMP pEC50 [1]	hS1P1 B-arrestin2 pEC50 [2]	Emax [1] [%]	Emax [2] [%]	Compound
>6.5	>5			CCC1(CC)CC(=O)c2cc(-c3nc(-c4ccc5c(c4)CC(=O)N5)no3)ccc2O1 [Compound 416, 5-(5-(2,2-diethyl-4-oxochroman-6-yl)-1,2,4-oxadiazol-3-yl)indolin-2-one]
>6.5	>5	> 75	> 75	Cc1cccc2oc(-c3ccc4c(c3)nnn4C(C)C)nc12 [Compound 418, 2-(1-isopropyl-1H-benzo[d][1,2,3]triazol-5-yl)-4-methylbenzo[d]oxazole]
>6.5	>5	> 75	< 75	Cc1ccc2oc(-c3ccc4c(c3)nnn4C(C)C)nc2c1 [Compound 419, 2-(1-isopropyl-1H-benzo[d][1,2,3]triazol-5-yl)-5-methylbenzo[d]oxazole]
>6.5	<5	> 75	> 75	Cc1ccc2nc(-c3ccc4c(c3)nnn4C(C)C)oc2c1 [Compound 420, 2-(1-isopropyl-1H-benzo[d][1,2,3]triazol-5-yl)-6-methylbenzo[d]oxazole]
<6.5	<5	> 75	< 75	Cc1cccc2nc(-c3ccc4c(c3)nnn4C(C)C)oc12 [Compound 421, 2-(1-isopropyl-1H-benzo[d][1,2,3]triazol-5-yl)-7-methylbenzo[d]oxazole]
>6.5	<5	> 75	> 75	COc1cccc2oc(-c3ccc4c(c3)nnn4C(C)C)nc12 [Compound 424, 2-(1-isopropyl-1H-benzo[d][1,2,3]triazol-5-yl)-4-methoxybenzo[d]oxazole]
>6.5	<5	> 75	> 75	COc1ccc2nc(-c3ccc4c(c3)nnn4C(C)C)oc2c1 [Compound 426, 2-(1-isopropyl-1H-benzo[d][1,2,3]triazol-5-yl)-6-methoxybenzo[d]oxazole]
<6.5	<5	> 75	> 75	CC(C)n1nnc2cc(-c3nc4c(Cl)cccc4o3)ccc21 [Compound 427, 4-chloro-2-(1-isopropyl-1H-benzo[d][1,2,3]triazol-5-yl)benzo[d]oxazole]
<6.5	<5	> 75	> 75	CC(C)n1nnc2cc(-c3nc4c(Br)cccc4o3)ccc21 [Compound 428, 4-bromo-2-(1-isopropylbenzotriazol-5-yl)-1,3-benzoxazole]
<6.5	<5			CC(C)n1nnc2cc(-c3nc4cccc(Br)c4o3)ccc21 [Compound 429, 7-bromo-2-(1-isopropyl-1H-benzo[d][1,2,3]triazol-5-yl)benzo[d]oxazole]
<6.5	<5			CCC1(CC)C/C(=N/O)c2cc(-c3nc(-c4cccnc4)no3)ccc2O1 [Compound 430, N-[(4Z)-2,2-diethyl-6-[3-(pyridin-3-yl)-1,2,4-oxadiazol-5-yl]-3,4-dihydro-2H-1-benzopyran-4-ylidene]hydroxylamine]
<6.5	<5			CCC1(CC)C/C(=N\O)c2cc(-c3nc(-c4cccnc4)no3)ccc2O1 [Compound 431, N-[(4E)-2,2-diethyl-6-[3-(pyridin-3-yl)-1,2,4-oxadiazol-5-yl]-3,4-dihydro-2H-1-benzopyran-4-ylidene]hydroxylamine]
>6.5	>5	> 75	> 75	CC(C)n1nnc2cc(-c3nc(-c4ccccc4C(F)(F)F)co3)ccc21 [Compound 432, 1-(propan-2-yl)-5-{4-[2-(trifluoromethyl)phenyl]-1,3-oxazol-2-yl}-1H-1,2,3-benzotriazole]

Reference: US11912693B2, “Compounds for modulating S1P1 activity and methods of using the same” (TREVENA, INC., priority 2017, dated 2024)
